Publication PMC7580834, “Inhibition mechanism of naphthylphenylamine derivatives acting on the CDC25B dual phosphatase and analysis of the molecular processes involved in the high cytotoxicity exerted by one selected derivative in melanoma cells” (Journal of Enzyme Inhibition and Medicinal Chemistry, 2020)

Columns and labels:
Assay type in all cases: cell-based, human
[1] = tested on: cytochrome c in A375 cells; experiment: Cytochrome c subcellular localisation (immunofluorescence and Western blotting of fractions); conditions: 10 µM, 24 h
Method: (§1) To obtain the total protein extract, cells were seeded into 6-well-plates (3 × 10^5 cells/plate) for 24 h at 37 °C and then treated with 4a or 0.5% (v/v) DMSO. After treatment, cells were harvested, washed with PBS, and then lysed in ice-cold modified radio immunoprecipitation assay (RIPA) buffer (50 mM Tris•HCl, pH 7.4, 150 mM NaCl, 1% Nonidet P-40, 0.25% sodium deoxycholate, 1 mM Na3VO4 and 1 mM NaF), supplemented with protease inhibitors and incubated for 30 min on ice. The supernatant, obtained after centrifugation at 13200 g for 30 min at 4 °C, constituted the total protein extract. Protein concentration was determined by the Bradford method, using bovine serum albumin (BSA) as standard. To obtain the cytosolic and mitochondrial fractions, cells were plated at a density of 2 × 10^6 cells/plate for 24 h at 37 °C. After the treatment with 4a or 0.5% (v/v) DMSO, cells were harvested, washed in PBS, and then resuspended in buffer A (5 mM Hepes, pH 7.4, 250 mM mannitol, 0.5 mM EGTA, 0.1% BSA), supplemented with protease inhibitors, and homogenised. The homogenate was centrifuged at 600 g for 5 min at 4 °C and the supernatant was then centrifuged at 10300 g for 10 min at 4 °C. The resulting supernatant represented the cytosolic fraction, whereas the pellet, constituting the mitochondrial fraction was resuspended in RIPA buffer. Protein concentration was determined as previously indicated. Equal amounts of total, cytosolic or mitocondrial protein extracts were used for Western blotting analysis. Briefly, protein samples were dissolved in SDS-reducing loading buffer, run on sodium dodecylsulfate polyacrylamide gel electrophoresis (SDS/PAGE), and then transferred to Immobilon P membrane (Millipore, Saint Louis, MO, USA). The filter was incubated with the specific primary antibody at 4 °C overnight and then with the secondary antibody at room temperature for 1 h. Membranes were then analysed by an enhanced chemiluminescence reaction using WesternBright ECL (Advansta, San Jose, CA, USA) according to manufacturer’s instructions; signals were visualised by autoradiography. The analysis of pAkt protein levels was performed as previously described. Briefly, filters were first incubated with the anti-pAkt primary antibody and then with the secondary antibody and membranes were analysed by an enhanced chemiluminescence reaction as previously indicated. The same filters were then stripped, using AbCam (Cambridge, UK) stripping solution, pH 2 (200 mM glycine, 3.5 mM SDS, 1% Tween-20) at 45 °C for 30 min, washed 3 times with PBS-Tween 0.1%, incubated with anti-Akt primary antibody and then with the relative secondary antibody. Signals were detected as previously specified.
(§2) Immunofluorescence experiments were carried out essentially as previously described. […]

[2] = tested on: cytochrome c in A2058 cells; experiment: as above; conditions: 10 µM, 24 h
Method: as §1, §2

caspase-3 in A375 cells = experiment: Caspase-3 fluorimetric activity assay in cell lysates; conditions: 10 µM, 24 h
Method: (§3) The caspase-3 and caspase-9 enzymatic activity was measured by using caspase-3 and -9 fluorimetric assay kits, respectively, according to the manufacturer’s protocol. Briefly, cells were seeded into 75 cm^2 plates (2 × 10^6 cells/plate) and after 24 h treated with 4a or 0.5% (v/v) DMSO for 24 h. At the end of incubation, cells were collected, washed with phosphate-buffered saline constituted by 10 mM Na2HPO4, 2 mM KH2PO4, pH 7.4, supplemented with 137 mM NaCl and 2.7 mM KCl (PBS), and finally lysed at 4 °C in the cell lysis buffer. Cell lysates were incubated with 50 µM DEVD-AFC or LEHD-AFC substrates at 37 °C for 2 h, to detect caspase-3 or caspase-9 activity, respectively, using a Cary Eclipse spectrofluorimeter. Excitation and emission wavelengths were set at 400 nm and 505 nm, respectively; both excitation and emission slits were set at 10 nm.

caspase-3 in A2058 cells = experiment: as above; conditions: 10 µM, 24 h
Method: as §3

caspase-9 in A375 cells = experiment: Caspase-9 fluorimetric activity assay in cell lysates; conditions: 10 µM, 24 h
Method: as §3

caspase-9 in A2058 cells = experiment: as above; conditions: 10 µM, 24 h
Method: as §3

A2058 cells = experiment: Western blotting of total cell extracts (CDC25A, -B, -C, p53, pAkt); conditions: 10 µM
Method: as §1

A375 cells = experiment: as above; conditions: 10 µM
Method: as §1

## CCOC(=O)c1cccc(Nc2cc(OC)cc3ccccc23)c1 [4a]
[1]
  cytochrome c localisation, Western blotting of cytosolic and mitochondrial extracts: significant cytosolic translocation
  cytochrome c localisation, immunofluorescence: induces a cytosolic translocation of cytochrome c
[2]
  cytochrome c localisation, Western blotting of cytosolic and mitochondrial extracts: significant cytosolic translocation
  cytochrome c localisation, immunofluorescence: induces a cytosolic translocation of cytochrome c
caspase-3 in A375 cells
  enzymatic activity of caspase-3: statistically significant increase
caspase-3 in A2058 cells
  enzymatic activity of caspase-3: statistically significant increase
caspase-9 in A375 cells
  enzymatic activity of caspase-9: statistically significant increase
caspase-9 in A2058 cells
  enzymatic activity of caspase-9: statistically significant increase
A2058 cells; 16- and 24-h
  p53 protein levels: clear and significant increase
A2058 cells; 30-min
  pAkt protein levels: significant and early decrease
A2058 cells; essentially after 24- and 48-h
  CDC25A, -B and -C protein levels: reduction of protein levels of all three forms
A375 cells; 16- and 24-h
  p53 protein levels: clear and significant increase
A375 cells; 30-min
  pAkt protein levels: significant and early decrease
A375 cells; essentially after 24- and 48-h
  CDC25A, -B and -C protein levels: reduction of protein levels of all three forms
